Measurements taken from patent US20220315895A1, “METHODS OF MAKING OLIGOPOTENT AND UNIPOTENT PRECURSORS” (Transfusion Health, LLC, priority 2019, published 2022).

Tested on: expanded cord blood CD34+ cells, lymphoid progenitors
Experiment: Lymphoid Progenitor Differentiation Culture after Expansion Culture (Example 41)
Type: cell-based, human
Settings: for Fold Enhancement (vs. unexpanded) of CD10+ lineage output: 14 days Lymphoid Differentiation Culture
From the text: Lymphoid Progenitor Differentiation Cultures (L Diff Cultures) were initiated prior to culture in +Formula I (Day 1 L Diff Culture), following 14 days of culture in +Formula I (14-day +Formula I-expanded L Diff Culture), following 14 days of culture in control conditions (14-day DMSO-expanded L Diff Culture) or following 21 days of culture in +Formula I (21-day +Formula I-expanded L Diff Culture).
12-well non-TC-treated plates were coated with StemSpan Lymphoid Differentiation Coating Material (STEMCELL Technologies) by incubation for two hours at room temperature. Immediately prior to initiation of L Diff Culture, wells were washed with PBS.
Purified CD34+ cells were plated at 20,000 cells per well, in Lymphoid Progenitor Expansion Medium (“LPEM”), comprising StemSpan SFEM II medium (STEMCELL Technologies) with StemSpan Lymphoid Progenitor Expansion Supplement (STEMCELL Technologies). Cells were plated in duplicate, in 500 μl/well, then placed in a humidified incubator at atmospheric oxygen and 5% CO2. Exact cell numbers dispensed per well were quantified with flow cytometry for later calculations.
On days three or five, an additional 500 μl/well of LPEM was added, then on days seven and eleven, half of the media was removed and replaced with fresh LPEM.
At seven and fourteen days, cells were analyzed via flow cytometry to quantify lymphoid lineage phenotypes of CD7+/CD5−, CD5+/CD7− and CD7+/CD5+, as well as presence of maturing B cells (CD19+), T cells (CD3+) or NK cells (CD56+).
“Per-Assayed-CD34+ Cell Output” describes the output of differentiated cells per CD34+ cell placed into Differentiation Culture, and is calculated by dividing the Corrected Count of lineage-positive cells by the number of CD34+ cells placed into quantified at Differentiation Culture initiation following 1, 14, 28, 42 or 64 days in Expansion Culture.
“Scaled Output” (or Scaled Output per CD34+ cell) describes the number of differentiated cells of a given lineage that may be produced from a single CD34+ cell following both Expansion Cell Culture (if expanded) followed by Differentiation Culture. This quantity is calculated by multiplying Per-Assayed-CD34+ Cell Output by the Fold Expansion of CD34+ cells from day 1 to the day of Differentiation Culture initiation (day 14, 28, 42 or 64). This quantity is synonymous with “per-expanded-dl-CD34+ cell output” used in Example 38 above.
“Fold Enhancement (vs. unexpanded)” was calculated to fully capture the benefit of Expansion Culture in +Formula I Conditions prior to Differentiation Culture. This quantity was calculated by dividing the Scaled Output output of a given cell population by the Per-Assayed-CD34+ Cell Output of that population from unexpanded cells placed into differentiation culture, as in the equation below. Each fold increase was calculated relative to the same number of days in differentiation culture, e.g. the fold increase of cells differentiated for six days was calculated by dividing the scaled output of expanded cells differentiated for six days by the output of unexpanded cells differentiated for six days. In the case of cells differentiated for 14 days, an exact match in unexpanded cells was not available, so output at differentiation day 13 was used as a denominator.

[1] = 14 days in +Formula I Expansion Culture
[2] = 21 days in +Formula I Expansion Culture

SMILES: CC(C)(C)C(=O)Nc1ccc2c(c1)C(O)c1ccccc1-2 (centres unmarked) [Compound 1.010]
- Fold Enhancement (vs. unexpanded) of CD7+/CD5+ lineage output [1]: 5.8 fold
- Fold Enhancement (vs. unexpanded) of CD7+/CD5− lineage output [1]: 6.3 fold
- Fold Enhancement (vs. unexpanded) of CD7−/CD5+ lineage output [1]: 11 fold
- Fold Enhancement (vs. unexpanded) of CD10+ lineage output [1]: 5 fold
- Fold Enhancement (vs. unexpanded) of CD7+/CD5+ lineage output [2]: 238 fold
- Fold Enhancement (vs. unexpanded) of CD7+/CD5− lineage output [2]: 46 fold
- Fold Enhancement (vs. unexpanded) of CD7−/CD5+ lineage output [2]: 180 fold
- Fold Enhancement (vs. unexpanded) of CD10+ lineage output [2]: 37 fold
